{"source": "ChEMBL document CHEMBL1201862", "about": "“PubChem BioAssay data set” (2004)", "target": "T1, Exodeoxyribonuclease V (Escherichia coli (strain K12), UniProt P04993+P07648+P08394)", "T1 sequence (P04993 whole entry)": "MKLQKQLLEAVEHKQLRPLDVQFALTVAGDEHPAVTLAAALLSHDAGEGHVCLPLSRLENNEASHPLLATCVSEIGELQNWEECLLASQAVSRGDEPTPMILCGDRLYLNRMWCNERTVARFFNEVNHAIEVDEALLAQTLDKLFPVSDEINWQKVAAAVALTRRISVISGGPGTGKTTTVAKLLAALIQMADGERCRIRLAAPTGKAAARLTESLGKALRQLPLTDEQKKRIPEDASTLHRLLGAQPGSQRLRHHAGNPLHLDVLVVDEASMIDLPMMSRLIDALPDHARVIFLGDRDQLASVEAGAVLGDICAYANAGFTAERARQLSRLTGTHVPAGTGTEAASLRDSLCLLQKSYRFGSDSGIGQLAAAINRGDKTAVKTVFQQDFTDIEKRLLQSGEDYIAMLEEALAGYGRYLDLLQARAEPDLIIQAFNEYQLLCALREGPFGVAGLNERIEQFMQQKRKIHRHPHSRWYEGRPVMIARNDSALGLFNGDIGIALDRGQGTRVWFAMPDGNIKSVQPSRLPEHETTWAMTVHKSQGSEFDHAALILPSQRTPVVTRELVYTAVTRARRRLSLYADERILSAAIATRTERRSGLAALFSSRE", "T1 sequence (P07648 whole entry)": "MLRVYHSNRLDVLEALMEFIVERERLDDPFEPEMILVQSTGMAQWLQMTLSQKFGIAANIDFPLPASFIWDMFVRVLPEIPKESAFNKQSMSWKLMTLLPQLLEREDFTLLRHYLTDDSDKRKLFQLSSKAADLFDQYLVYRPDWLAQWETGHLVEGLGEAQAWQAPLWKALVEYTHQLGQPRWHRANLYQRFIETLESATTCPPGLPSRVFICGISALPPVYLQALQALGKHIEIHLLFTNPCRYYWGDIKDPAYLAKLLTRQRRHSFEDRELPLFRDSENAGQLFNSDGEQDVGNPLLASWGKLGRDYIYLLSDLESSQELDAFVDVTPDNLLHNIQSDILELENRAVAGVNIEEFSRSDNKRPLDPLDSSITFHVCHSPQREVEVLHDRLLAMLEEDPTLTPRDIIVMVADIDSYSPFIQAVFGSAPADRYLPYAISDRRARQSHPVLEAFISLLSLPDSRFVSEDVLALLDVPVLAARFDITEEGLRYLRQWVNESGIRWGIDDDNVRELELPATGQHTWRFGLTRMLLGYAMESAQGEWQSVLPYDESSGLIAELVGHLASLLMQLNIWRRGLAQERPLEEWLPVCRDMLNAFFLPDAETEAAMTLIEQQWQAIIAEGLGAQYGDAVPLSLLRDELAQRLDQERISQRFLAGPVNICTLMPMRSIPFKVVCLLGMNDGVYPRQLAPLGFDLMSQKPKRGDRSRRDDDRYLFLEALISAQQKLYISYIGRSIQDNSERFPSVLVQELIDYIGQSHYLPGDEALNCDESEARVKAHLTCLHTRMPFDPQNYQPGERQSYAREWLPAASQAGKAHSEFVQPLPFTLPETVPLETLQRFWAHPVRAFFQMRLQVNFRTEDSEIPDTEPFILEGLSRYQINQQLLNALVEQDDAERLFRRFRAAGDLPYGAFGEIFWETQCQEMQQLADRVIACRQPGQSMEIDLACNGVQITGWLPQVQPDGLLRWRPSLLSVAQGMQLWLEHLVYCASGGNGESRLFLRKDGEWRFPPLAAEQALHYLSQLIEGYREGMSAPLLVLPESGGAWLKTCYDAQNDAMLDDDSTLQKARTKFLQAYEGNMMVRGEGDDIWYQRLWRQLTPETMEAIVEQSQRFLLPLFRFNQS", "T1 sequence (P08394 whole entry)": "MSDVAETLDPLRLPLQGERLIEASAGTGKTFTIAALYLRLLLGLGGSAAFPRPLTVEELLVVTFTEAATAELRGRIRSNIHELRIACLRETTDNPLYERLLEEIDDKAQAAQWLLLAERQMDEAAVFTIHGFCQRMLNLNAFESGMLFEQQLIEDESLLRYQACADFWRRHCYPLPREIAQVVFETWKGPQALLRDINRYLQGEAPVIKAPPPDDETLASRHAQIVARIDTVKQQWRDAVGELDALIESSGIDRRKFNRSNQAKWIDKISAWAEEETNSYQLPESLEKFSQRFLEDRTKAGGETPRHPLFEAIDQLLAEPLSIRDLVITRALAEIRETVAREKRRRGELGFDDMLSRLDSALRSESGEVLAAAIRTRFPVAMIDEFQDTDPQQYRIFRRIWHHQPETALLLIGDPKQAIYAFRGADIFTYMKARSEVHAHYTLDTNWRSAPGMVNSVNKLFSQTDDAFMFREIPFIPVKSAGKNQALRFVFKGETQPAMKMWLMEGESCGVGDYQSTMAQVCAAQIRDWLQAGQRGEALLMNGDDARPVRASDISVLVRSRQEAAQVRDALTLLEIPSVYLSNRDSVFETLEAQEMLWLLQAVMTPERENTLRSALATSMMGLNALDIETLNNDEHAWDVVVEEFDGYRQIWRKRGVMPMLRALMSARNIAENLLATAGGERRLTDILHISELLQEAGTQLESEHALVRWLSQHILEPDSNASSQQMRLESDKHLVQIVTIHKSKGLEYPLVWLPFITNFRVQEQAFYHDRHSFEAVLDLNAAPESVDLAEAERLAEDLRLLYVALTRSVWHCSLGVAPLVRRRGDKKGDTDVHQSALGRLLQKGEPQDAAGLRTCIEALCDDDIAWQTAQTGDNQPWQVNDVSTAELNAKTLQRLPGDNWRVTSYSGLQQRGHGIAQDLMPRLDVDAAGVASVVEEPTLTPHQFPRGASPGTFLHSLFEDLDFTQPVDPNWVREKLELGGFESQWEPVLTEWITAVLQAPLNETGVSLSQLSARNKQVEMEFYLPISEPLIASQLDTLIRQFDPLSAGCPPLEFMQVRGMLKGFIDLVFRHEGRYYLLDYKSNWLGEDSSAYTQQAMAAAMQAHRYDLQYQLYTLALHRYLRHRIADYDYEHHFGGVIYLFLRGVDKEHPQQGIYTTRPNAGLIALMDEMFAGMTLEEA", "assay": "RecBCD inhibition via phage-restricted bacterial growth – absorbance, V66 E. coli, mutant T4 phage, counter-screen for AddAB inhibitor project, dose response (AID 492957)", "assay_type": "functional, cell-based, Escherichia coli str. K-12 substr. MG1655", "note": "Activity calls are given as the source filed them. How the calls were made is not given here."}
{"smiles": "CCCC(=O)NC(c1cccs1)c1cc(Cl)c2cccnc2c1O", "note": "(stereo unspecified)", "values": [{"measurement": "IC50", "result": "> 119 µM (inactive)"}]}
